Source: ChEMBL document CHEMBL4152339, “Design and synthesis of novel 1H-tetrazol-5-amine based potent antimicrobial agents: DNA topoisomerase IV and gyrase affinity evaluation supported by molecular docking studies” (Eur J Med Chem, 2018)

Columns and labels:
[1] = system: Pseudomonas aeruginosa; assay: Antibacterial activity against Pseudomonas aeruginosa ATCC 15442 after 18 hrs by CLSI disc diffusion method; format: functional; settings: ATCC 15442, 18 h
[2] = system: Staphylococcus aureus; assay: Antibacterial activity against Staphylococcus aureus 572 after 18 hrs by CLSI disc diffusion method; format: functional; settings: Staphylococcus aureus, 572, 18 h
[3] = system: Pseudomonas aeruginosa; assay: Antibacterial activity against Pseudomonas aeruginosa 6m after 18 hrs by CLSI disc diffusion method; format: functional
[4] = Selectivity index, ratio of IC50 for human HaCaT cells to MIC for Bordetella bronchiseptica ATCC 4617; format: toxicity; settings: read-out: Selectivity Index
[5] = system: Micrococcus luteus; assay: Antibacterial activity against Micrococcus luteus ATCC 9341 after 18 hrs by CLSI disc diffusion method; format: functional; settings: ATCC 9341, 18 h
[6] = system: Staphylococcus epidermidis; assay: Antibacterial activity against Staphylococcus epidermidis ATCC 12228 after 18 hrs by CLSI disc diffusion method; format: functional; settings: ATCC 12228, 18 h
[7] = system: Staphylococcus epidermidis; assay: Antibacterial activity against Staphylococcus epidermidis 431 after 18 hrs by CLSI disc diffusion method; format: functional; settings: Staphylococcus epidermidis, 431, 18 h
[8] = system: Escherichia coli; assay: Antibacterial activity against Escherichia coli ML 5 after 18 hrs by CLSI disc diffusion method; format: functional; settings: ML 5, 18 h
[9] = system: Escherichia coli; assay: Antibacterial activity against Escherichia coli ML 9 after 18 hrs by CLSI disc diffusion method; format: functional; settings: ML 9, 18 h
[10] = system: Enterococcus faecalis; assay: Antibacterial activity against Enterococcus faecalis ATCC 29212 after 18 hrs by CLSI disc diffusion method; format: functional; settings: ATCC 29212, 18 h
[11] = system: Escherichia coli; assay: Antibacterial activity against Escherichia coli ML 17 after 18 hrs by CLSI disc diffusion method; format: functional; settings: ML 17, 18 h
[12] = system: Staphylococcus aureus; assay: Antibacterial activity against Staphylococcus aureus ATCC 6538 after 18 hrs by CLSI disc diffusion method; format: functional; settings: ATCC 6538, 18 h
[13] = system: Staphylococcus aureus; assay: Antibacterial activity against Staphylococcus aureus 496 after 18 hrs by CLSI disc diffusion method; format: functional; settings: Staphylococcus aureus, 496, 18 h
[14] = system: Bordetella bronchiseptica; assay: Antibacterial activity against Bordetella bronchiseptica ATCC 4617 after 18 hrs by CLSI disc diffusion method; format: functional; settings: ATCC 4617, 18 h
[15] = system: Bacillus spizizenii; assay: Antibacterial activity against Bacillus subtilis ATCC 6633 after 18 hrs by CLSI disc diffusion method; format: functional; settings: ATCC 6633, 18 h
[16] = system: Staphylococcus epidermidis; assay: Antibacterial activity against Staphylococcus epidermidis 511 after 18 hrs by CLSI disc diffusion method; format: functional; settings: Staphylococcus epidermidis, 511, 18 h
[17] = system: Pseudomonas aeruginosa; assay: Antibacterial activity against Pseudomonas aeruginosa 12m after 18 hrs by CLSI disc diffusion method; format: functional
[18] = system: Staphylococcus aureus; assay: Antibacterial activity against Staphylococcus aureus 586 after 18 hrs by CLSI disc diffusion method; format: functional; settings: Staphylococcus aureus, 586, 18 h
[19] = system: Escherichia coli; assay: Antibacterial activity against Escherichia coli ML 8 after 18 hrs by CLSI disc diffusion method; format: functional; settings: ML 8, 18 h
[20] = system: Staphylococcus aureus; assay: Antibacterial activity against Staphylococcus aureus 585 after 18 hrs by CLSI disc diffusion method; format: functional; settings: Staphylococcus aureus, 585, 18 h
[21] = system: Pseudomonas aeruginosa; assay: Antibacterial activity against Pseudomonas aeruginosa 16m after 18 hrs by CLSI disc diffusion method; format: functional
[22] = system: Staphylococcus aureus; assay: Antibacterial activity against Staphylococcus aureus 497 after 18 hrs by CLSI disc diffusion method; format: functional; settings: Staphylococcus aureus, 497, 18 h
[23] = Selectivity index, ratio of IC50 for human HaCaT cells to MIC for Enterococcus hirae ATCC 10541; format: toxicity; settings: read-out: Selectivity Index
[24] = system: Bacillus cereus; assay: Antibacterial activity against Bacillus cereus ATCC 11778 after 18 hrs by CLSI disc diffusion method; format: functional; settings: ATCC 11778, 18 h
[25] = system: Pseudomonas aeruginosa; assay: Antibacterial activity against Pseudomonas aeruginosa 11m after 18 hrs by CLSI disc diffusion method; format: functional
[26] = system: Staphylococcus aureus; assay: Antibacterial activity against Staphylococcus aureus NCTC 4163 after 18 hrs by CLSI disc diffusion method; format: functional; settings: NCTC 4163, 18 h
[27] = system: Staphylococcus epidermidis; assay: Antibacterial activity against Staphylococcus epidermidis 423 after 18 hrs by CLSI disc diffusion method; format: functional; settings: Staphylococcus epidermidis, 423, 18 h
[28] = system: Staphylococcus aureus; assay: Antibacterial activity against Staphylococcus aureus ATCC 25923 after 18 hrs by CLSI disc diffusion method; format: functional; settings: ATCC 25923, 18 h
[29] = system: Staphylococcus epidermidis; assay: Antibacterial activity against Staphylococcus epidermidis 510 after 18 hrs by CLSI disc diffusion method; format: functional; settings: Staphylococcus epidermidis, 510, 18 h
[30] = system: Pseudomonas aeruginosa; assay: Antibacterial activity against Pseudomonas aeruginosa ATCC 27853 after 18 hrs by CLSI disc diffusion method; format: functional; settings: ATCC 27853, 18 h
[31] = system: Escherichia coli; assay: Antibacterial activity against Escherichia coli ML 12 after 18 hrs by CLSI disc diffusion method; format: functional; settings: ML 12, 18 h
[32] = system: Escherichia coli; assay: Antibacterial activity against Escherichia coli ML 6 after 18 hrs by CLSI disc diffusion method; format: functional; settings: ML 6, 18 h
[33] = system: Staphylococcus aureus; assay: Antibacterial activity against Staphylococcus aureus 495 after 18 hrs by CLSI disc diffusion method; format: functional; settings: Staphylococcus aureus, 495, 18 h
[34] = system: Micrococcus luteus; assay: Antibacterial activity against Micrococcus luteus ATCC 10240 after 18 hrs by CLSI disc diffusion method; format: functional; settings: ATCC 10240, 18 h
[35] = target: DNA gyrase (Staphylococcus aureus, UniProt P0A0K8+P20831); assay: Inhibition of Staphylococcus aureus DNA gyrase supercoiling activity using pBR322 DNA as substrate after 30 mins by ethidium bromide staining based agarose gel electrophoresis method; format: protein-complex assay
[36] = Selectivity index, ratio of IC50 for human HaCaT cells to MIC for Escherichia coli ATCC 10538; format: toxicity; settings: read-out: Selectivity Index
[37] = Selectivity index, ratio of IC50 for human HaCaT cells to MIC for Staphylococcus aureus NCTC 4163; format: toxicity; settings: read-out: Selectivity Index
[38] = system: Pseudomonas aeruginosa; assay: Antibacterial activity against Pseudomonas aeruginosa 7m after 18 hrs by CLSI disc diffusion method; format: functional
[39] = system: Enterococcus hirae; assay: Antibacterial activity against Enterococcus hirae ATCC 10541 after 18 hrs by CLSI disc diffusion method; format: functional; settings: ATCC 10541, 18 h
[40] = system: Pseudomonas aeruginosa; assay: Antibacterial activity against Pseudomonas aeruginosa 10m after 18 hrs by CLSI disc diffusion method; format: functional
[41] = system: Staphylococcus aureus; assay: Antibacterial activity against Staphylococcus aureus 537 after 18 hrs by CLSI disc diffusion method; format: functional; settings: Staphylococcus aureus, 537, 18 h
[42] = system: Staphylococcus aureus; assay: Antibacterial activity against Staphylococcus aureus 498 after 18 hrs by CLSI disc diffusion method; format: functional; settings: Staphylococcus aureus, 498, 18 h
[43] = system: Pseudomonas aeruginosa; assay: Antibacterial activity against Pseudomonas aeruginosa 18m after 18 hrs by CLSI disc diffusion method; format: functional
[44] = system: Proteus vulgaris; assay: Antibacterial activity against Proteus vulgaris NCTC 4635 after 18 hrs by CLSI disc diffusion method; format: functional; settings: NCTC 4635, 18 h
[45] = Selectivity index, ratio of IC50 for human HaCaT cells to MIC for Proteus vulgaris NCTC 4635; format: toxicity; settings: read-out: Selectivity Index
[46] = system: Staphylococcus epidermidis; assay: Antibacterial activity against Staphylococcus epidermidis 469 after 18 hrs by CLSI disc diffusion method; format: functional; settings: Staphylococcus epidermidis, 469, 18 h
[47] = system: Staphylococcus epidermidis; assay: Antibacterial activity against Staphylococcus epidermidis ATCC 35984 after 18 hrs by CLSI […] method; format: functional; settings: ATCC 35984, 18 h
[48] = Selectivity index, ratio of IC50 for human HaCaT cells to MIC for Bacillus subtilis ATCC 6633; format: toxicity; settings: read-out: Selectivity Index
[49] = system: HaCaT; assay: Cytotoxicity activity against human HaCaT cells assessed as reduction in cell viability after 72 hrs by MTT assay; format: cell-based
[50] = system: Escherichia coli; assay: Antibacterial activity against Escherichia coli ATCC 10538 after 18 hrs by CLSI disc diffusion method; format: functional; settings: ATCC 10538, 18 h
[51] = system: A549; assay: Cytotoxicity activity against human A549 cells assessed as reduction in cell viability after 72 hrs by MTT assay; format: cell-based; settings: A549, 72 h
[52] = system: Staphylococcus epidermidis; assay: Antibacterial activity against Staphylococcus epidermidis 471 after 18 hrs by CLSI disc diffusion method; format: functional; settings: Staphylococcus epidermidis, 471, 18 h
[53] = system: Staphylococcus epidermidis; assay: Antibacterial activity against Staphylococcus epidermidis 433 after 18 hrs by CLSI disc diffusion method; format: functional; settings: Staphylococcus epidermidis, 433, 18 h
[54] = Inhibition of Staphylococcus aureus DNA topoisomerase 4 using Kinetoplast DNA as substrate after 30 mins by ethidium bromide staining based agarose gel electrophoresis method
[55] = system: Escherichia coli; assay: Antibacterial activity against Escherichia coli ML 15 after 18 hrs by CLSI disc diffusion method; format: functional; settings: ML 15, 18 h
[56] = system: Escherichia coli; assay: Antibacterial activity against Escherichia coli ML 16 after 18 hrs by CLSI disc diffusion method; format: functional; settings: ML 16, 18 h
[57] = system: Staphylococcus epidermidis; assay: Antibacterial activity against Staphylococcus epidermidis 432 after 18 hrs by CLSI disc diffusion method; format: functional; settings: Staphylococcus epidermidis, 432, 18 h
[58] = system: Pseudomonas aeruginosa; assay: Antibacterial activity against Pseudomonas aeruginosa 31m after 18 hrs by CLSI disc diffusion method; format: functional
[59] = Selectivity index, ratio of IC50 for human HaCaT cells to MIC for Micrococcus luteus ATCC 10240; format: toxicity; settings: read-out: Selectivity Index

Sequence of DNA gyrase (P0A0K8 whole entry): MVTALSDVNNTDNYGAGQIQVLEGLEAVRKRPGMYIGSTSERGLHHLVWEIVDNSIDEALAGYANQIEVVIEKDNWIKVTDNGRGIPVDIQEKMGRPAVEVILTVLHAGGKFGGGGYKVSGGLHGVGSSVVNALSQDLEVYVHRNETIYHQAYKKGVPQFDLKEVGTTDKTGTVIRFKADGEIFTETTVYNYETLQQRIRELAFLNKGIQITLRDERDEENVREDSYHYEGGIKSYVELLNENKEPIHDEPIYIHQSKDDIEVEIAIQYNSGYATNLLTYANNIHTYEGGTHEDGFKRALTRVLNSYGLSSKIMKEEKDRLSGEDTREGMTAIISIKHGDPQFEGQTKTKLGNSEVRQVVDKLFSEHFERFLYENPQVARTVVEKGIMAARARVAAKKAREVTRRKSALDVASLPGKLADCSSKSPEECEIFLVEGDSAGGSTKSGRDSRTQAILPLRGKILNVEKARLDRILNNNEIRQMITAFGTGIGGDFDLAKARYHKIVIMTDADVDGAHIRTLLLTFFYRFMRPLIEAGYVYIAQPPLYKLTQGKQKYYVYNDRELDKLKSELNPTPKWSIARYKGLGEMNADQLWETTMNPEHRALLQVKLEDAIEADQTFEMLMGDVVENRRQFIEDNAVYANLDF
Sequence of DNA gyrase (P20831 whole entry): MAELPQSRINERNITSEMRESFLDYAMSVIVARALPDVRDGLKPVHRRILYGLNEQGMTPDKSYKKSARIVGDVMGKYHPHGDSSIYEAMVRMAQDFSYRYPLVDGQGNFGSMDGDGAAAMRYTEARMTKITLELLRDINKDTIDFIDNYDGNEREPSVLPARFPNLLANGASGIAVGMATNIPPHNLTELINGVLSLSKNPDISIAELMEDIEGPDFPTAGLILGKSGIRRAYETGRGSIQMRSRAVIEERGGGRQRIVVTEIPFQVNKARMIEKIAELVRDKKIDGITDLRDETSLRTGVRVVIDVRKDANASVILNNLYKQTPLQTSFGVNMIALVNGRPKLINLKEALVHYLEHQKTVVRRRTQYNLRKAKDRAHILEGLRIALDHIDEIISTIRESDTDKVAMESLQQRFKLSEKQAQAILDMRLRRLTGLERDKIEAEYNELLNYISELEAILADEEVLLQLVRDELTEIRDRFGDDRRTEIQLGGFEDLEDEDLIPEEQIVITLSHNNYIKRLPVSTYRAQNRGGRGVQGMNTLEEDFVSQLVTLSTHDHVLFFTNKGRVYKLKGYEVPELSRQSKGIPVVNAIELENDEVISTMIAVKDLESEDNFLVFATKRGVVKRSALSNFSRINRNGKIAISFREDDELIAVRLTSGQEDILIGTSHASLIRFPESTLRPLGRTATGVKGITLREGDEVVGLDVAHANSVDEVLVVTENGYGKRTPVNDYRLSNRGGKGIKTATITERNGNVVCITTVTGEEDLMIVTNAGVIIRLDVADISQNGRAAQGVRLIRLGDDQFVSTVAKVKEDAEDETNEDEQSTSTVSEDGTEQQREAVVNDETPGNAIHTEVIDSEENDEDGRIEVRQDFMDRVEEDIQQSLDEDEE

Fc1ccc(-n2nnnc2NCc2ccco2)cc1Cl
12: selectivity ratio [4] | selectivity ratio [36] | selectivity ratio [37]
84 µM: IC50 [49]
3.06 µM: IC50 [35]
80 µM: IC50 [51]
3 µM: MIC [15] | MIC [24] | MIC [47]
14 µM: MIC [2] | MIC [9] | MIC [16] | MIC [18] | MIC [20] | MIC [21] | MIC [22] | MIC [27] | MIC [29] | MIC [39] | MIC [43] | MIC [53]
1 µM: MIC [5] | MIC [34] | MIC [44]
218 µM: MIC [1]
7 µM: MIC [3] | MIC [6] | MIC [7] | MIC [8] | MIC [10] | MIC [11] | MIC [12] | MIC [13] | MIC [14] | MIC [17] | MIC [19] | MIC [26] | MIC [28] | MIC [30] | MIC [33] | MIC [38] | MIC [41] | MIC [42] | MIC [46] | MIC [50] | MIC [52] | MIC [56] | MIC [57] | MIC [58]
54 µM: MIC [31] | MIC [32] | MIC [55]
6: selectivity ratio [23]
84: selectivity ratio [45] | selectivity ratio [59]
27 µM: MIC [25] | MIC [40]
28: selectivity ratio [48]
2.6 µg/mL: IC50 [54]
